# Source: patent publication US20250304587A1, “WEE1 INHIBITOR, PREPARATION THEREFOR AND USE THEREOF” (JIANGSU TASLY DIYI PHARMACEUTICAL CO., LTD., priority 2022, published 2025)
# Legend:
# BxPC3 cells = assay: Cell Titer-Glo anti-proliferation, BxPC3 cells; assay type: cell-based, human; details: 3 days, read-out: Anti-proliferative activity BxPC3 (IC50 class)
# Procedure: (§1) A. Evaluation of the Anti-Proliferative Effect of Compounds on BxPC3, HT-29 and OVCAR-3 Cells by the Cell Titer-Glo Method
# (§2) Compound solutions of different concentration gradients were prepared. […] The cell growth group without compound was used as a positive control (maximum signal control) and the medium was used as a negative control (minimum signal control), while ensuring that the final level of DMSO in each reaction well was 0.2%. After removing the medium from the 384-well plate, 25 μl of the configured compound at different concentrations was transferred into the well plate and the compound and cells were incubated in the cell incubator at 37° C. with 5% CO2 for 3 days.
# (§3) The 384-well plates were removed from the cell incubator and allowed to equilibrate for 1 h to room temperature. 25 μl of Cell Titer-Glo assay was added to each well, lysed on a shaker for 2 min and then read out (Luminescence) using a BMG PHERAStar after 10 min incubation. Calculate the inhibition rate from the luminescence signal.
# (§4) to calculate the rate of inhibition of the cells by different concentrations of the compounds. The IC50 of the compound on cell activity inhibition was calculated by fitting a log(inhibitor) vs. response-Variable slope model to GraphPad Prism 6. The fitted equation was: Y=Bottom+(Top-Bottom)/(1+10^((Log IC50−X)*HillSlope)), where Y represents the rate of inhibition and X represents the concentration of the known compound after Log.
# HT-29 cells = assay: Cell Titer-Glo anti-proliferation, HT-29 cells; assay type: cell-based, human; details: 3 days, read-out: Anti-proliferative activity HT-29 (IC50 class)
# Procedure: as §1, §2, §3, §4
# OVCAR-3 cells = assay: Cell Titer-Glo anti-proliferation, OVCAR-3 cells; assay type: cell-based; details: 3 days, read-out: Anti-proliferative activity OVCAR-3 (IC50 class)
# Procedure: as §1, §2, §3, §4
Structure (SMILES),IC50 (BxPC3 cells) [nM],IC50 (HT-29 cells) [nM],IC50 (OVCAR-3 cells) [nM]
C=CCn1c(=O)c2cnc(Nc3ccc(N4CCC(N5CCN(C)CC5)C(F)C4)cc3)nc2n1-c1ccc2c(n1)C(C)(O)C1(CC1)C2 (mixture of isomers) [Compound 14],1000 to 2000,100 to 1000,100 to 1000
C=CCn1c(=O)c2cnc(Nc3ccc(N4CCN(C)CC4)cc3)nc2n1-c1ccc2c(n1)C(O)(CC)C1(CC1)C2 (racemic) [Compound 18],2000 to 5000,100 to 1000,2000 to 5000
"C=CCn1c(=O)c2cnc(Nc3ccc(N4CCC(N(C)C)CC4)c(C)c3)nc2n1-c1ccc2c(n1)[C@@H](O)C1(CC2)CC1 (single isomer, unassigned) [Compound 48a]",100 to 1000,100 to 1000,100 to 1000
"C=CCn1c(=O)c2cnc(Nc3ccc(N4CC5CC(C4)N5C(C)C)cc3)nc2n1-c1ccc2c(n1)[C@](C)(O)C1(CC2)CC1 (single isomer, unassigned) [Compound 35a]",100 to 1000,100 to 1000,100 to 1000
C=CCn1c(=O)c2cnc(Nc3ccc(N4CCN(C)CC4)c(CO)c3)nc2n1-c1ccc2c(n1)C(C)(O)C1(CC1)C2 (racemic) [Compound 19],2000 to 5000,2000 to 5000,2000 to 5000
"C=CCn1c(=O)c2cnc(Nc3ccc(N4CC5CN(C)CC5C4)cc3)nc2n1-c1ccc2c(n1)C(O)(C(F)(F)F)C1(CC2)CC1 (single isomer, unassigned) [Compound 58a]",1000 to 2000,100 to 1000,2000 to 5000
"C=CCn1c(=O)c2cnc(Nc3ccc(N4CCN(C)CC4)cc3)nc2n1-c1ccc2c(n1)C(C)(O)C1(CC2)CC1 (single isomer, unassigned) [Compound 6b]",1000 to 2000,100 to 1000,–
"C=CCn1c(=O)c2cnc(Nc3ccc(N4CC5CC(C4)N5C(C)C)cc3)nc2n1-c1ccc2c(n1)C(O)(CC)C1(CC2)CC1 (single isomer, unassigned) [Compound 36a]",100 to 1000,100 to 1000,100 to 1000
C=CCn1c(=O)c2cnc(Nc3ccc(N4CC5CC(C4)N5C)c(C)c3)nc2n1-c1ccc2c(n1)C(O)C1(CC2)CC1 (centres unmarked) [Compound 67],1000 to 2000,1000 to 2000,1000 to 2000
C=CCn1c(=O)c2cnc(Nc3ccc(N4CC5CC(C4)N5C)c(OC)c3)nc2n1-c1ccc2c(n1)C(O)C1(CC2)CC1 (racemic) [Compound 49],2000 to 5000,2000 to 5000,2000 to 5000
C=CCn1c(=O)c2cnc(Nc3ccc(N4CCN(C)CC4)cc3)nc2n1-c1ccc2c(n1)C(O)(C(F)(F)F)C1(CC2)CC1 (centres unmarked) [Compound 53b],100 to 1000,100 to 1000,1000 to 2000
"C=CCn1c(=O)c2cnc(Nc3ccc(N4CC5CC(C4)N5C(C)C)cc3)nc2n1-c1ccc2c(n1)C(O)C1(CC2)CC1 (single isomer, unassigned) [Compound 39a]",100 to 1000,100 to 1000,100 to 1000
C=CCn1c(=O)c2cnc(Nc3ccc(N4CCOCC4)cc3)nc2n1-c1ccc2c(n1)C(O)(CC)C1(CC1)C2 (racemic) [Compound 24],1000 to 2000,1000 to 2000,1000 to 2000
C=CCn1c(=O)c2cnc(Nc3ccc(N4CC5CCC(C4)N5C)cc3)nc2n1-c1ccc2c(n1)C(O)(CC)C1(CC1)C2 (racemic) [Compound 25],1000 to 2000,1000 to 2000,100 to 1000
C=CCn1c(=O)c2cnc(Nc3ccc(N4CCN(C)CC4)cc3)nc2n1-c1ccc2c(n1)N(CC)CC21CCC1 [Compound 16],1000 to 2000,100 to 1000,–
"C=CCn1c(=O)c2cnc(Nc3ccc(N4CC5CC(C4)N5C)cc3)nc2n1-c1ccc2c(n1)[C@](O)(CC)C1(CC2)CC1 (single isomer, unassigned) [Compound 64a]",100 to 1000,100 to 1000,100 to 1000
C=CCn1c(=O)c2cnc(Nc3ccc(N4CCN(C)[C@H](C)C4)cc3)nc2n1-c1ccc2c(n1)C(O)(CC)C1(CC1)C2 (some centres unmarked) [Compound 40],1000 to 2000,100 to 1000,100 to 1000
"C=CCn1c(=O)c2cnc(Nc3ccc(N4C[C@H]5CN(C)C[C@H]5C4)cc3)nc2n1-c1ccc2c(n1)[C@H](O)C1(CC2)CC1 (single isomer, unassigned) [Compound 63b]",1000 to 2000,100 to 1000,1000 to 2000
C=CCn1c(=O)c2cnc(Nc3ccc(N4CCC(N(C)C)[C@H](F)C4)cc3)nc2n1-c1ccc2c(n1)C(C)(O)C1(CC2)CC1 (some centres unmarked) [Compound 60a],100 to 1000,100 to 1000,100 to 1000

Structure (SMILES),IC50 (BxPC3 cells) [nM],IC50 (HT-29 cells) [nM],IC50 (OVCAR-3 cells) [nM]
"C=CCn1c(=O)c2cnc(Nc3ccc(N4CC5CC(C4)N5C4CCC4)cc3)nc2n1-c1ccc2c(n1)C(O)(CC)C1(CC1)C2 (single isomer, unassigned) [Compound 22a]",1000 to 2000,100 to 1000,100 to 1000
C=CCn1c(=O)c2cnc(Nc3ccc(N4C[C@H]5C[C@@H]4CN5C)cc3)nc2n1-c1ccc2c(n1)C(O)(CC)C1(CC1)C2 (some centres unmarked) [Compound 26],2000 to 5000,1000 to 2000,2000 to 5000
"C=CCn1c(=O)c2cnc(Nc3ccc(N4C[C@H]5CN(C)C[C@H]5C4)cc3)nc2n1-c1ccc2c(n1)[C@@](C)(O)C1(CC2)CC1 (single isomer, unassigned) [Compound 43b]",100 to 1000,100 to 1000,100 to 1000
"C=CCn1c(=O)c2cnc(Nc3ccc(N4CC5CN(C)CC5C4)cc3)nc2n1-c1ccc2c(n1)C(O)C1(CC2)CC1 (single isomer, unassigned) [Compound 63a]",100 to 1000,100 to 1000,100 to 1000
C=CCn1c(=O)c2cnc(Nc3ccc(N4CCC(N(C)C)CC4)cc3)nc2n1-c1ccc2c(n1)C(O)C1(CC2)CC1 (centres unmarked) [Compound 66b],100 to 1000,100 to 1000,1000 to 2000
"C=CCn1c(=O)c2cnc(Nc3ccc(N4CC5CC(C4)N5C)cc3)nc2n1-c1ccc2c(n1)[C@@](O)(CC)C1(CC2)CC1 (single isomer, unassigned) [Compound 64b]",100 to 1000,100 to 1000,100 to 1000
C=CCn1c(=O)c2cnc(Nc3ccc(N4CCC(N(C)C)CC4)cc3)nc2n1-c1ccc2c(n1)C(C)(O)C1(CC2)CC1 (centres unmarked) [Compound 65b],100 to 1000,100 to 1000,100 to 1000
C=CCn1c(=O)c2cnc(Nc3ccc(N4CCC5(CCN(C)CC5)CC4)c(F)c3)nc2n1-c1ccc2c(n1)C(O)C1(CC2)CC1 (centres unmarked) [Compound 62b],100 to 1000,100 to 1000,100 to 1000
"C=CCn1c(=O)c2cnc(Nc3ccc(N4CCC5(CCN(C)CC5)CC4)cc3)nc2n1-c1ccc2c(n1)[C@](O)(CC)C1(CC2)CC1 (single isomer, unassigned) [Compound 69a]",1000 to 2000,100 to 1000,100 to 1000
"C=CCn1c(=O)c2cnc(Nc3ccc(N4C[C@@H]5C[C@H]4CN5C)cc3)nc2n1-c1ccc2c(n1)[C@@](C)(O)C1(CC2)CC1 (single isomer, unassigned) [Compound 45a]",1000 to 2000,100 to 1000,100 to 1000
"C=CCn1c(=O)c2cnc(Nc3ccc(N4CCC(N(C)C)[C@@H](F)C4)cc3)nc2n1-c1ccc2c(n1)[C@@](C)(O)C1(CC1)C2 (single isomer, unassigned) [Compound 20b]",1000 to 2000,1000 to 2000,1000 to 2000
"C=CCn1c(=O)c2cnc(Nc3ccc(N4CC5CN(C)CC5C4)cc3)nc2n1-c1ccc2c(n1)C(C)(O)C1(CC2)CC1 (single isomer, unassigned) [Compound 43a]",100 to 1000,100 to 1000,100 to 1000
C=CCn1c(=O)c2cnc(Nc3ccc(N4CCN(C)C(C)C4)cc3)nc2n1-c1ccc2c(n1)C(O)C1(CC2)CC1 (centres unmarked) [Compound 68b],100 to 1000,100 to 1000,100 to 1000
"C=CCn1c(=O)c2cnc(Nc3ccc(N4CCN(C)CC4)c(C)c3)nc2n1-c1ccc2c(n1)[C@](C)(O)C1(CC2)CC1 (single isomer, unassigned) [Compound 23b]",100 to 1000,100 to 1000,100 to 1000
C=CCn1c(=O)c2cnc(Nc3ccc(N4CCC5(CCN(C)CC5)CC4)cc3)nc2n1-c1ccc2c(n1)[C@@H](O)C1(CC2)CC1 [Compound 38a],1000 to 2000,100 to 1000,1000 to 2000
"C=CCn1c(=O)c2cnc(Nc3ccc(N4CCC(N(C)C)C(F)C4)cc3)nc2n1-c1ccc2c(n1)C(C)(O)C1(CC1)C2 (single isomer, unassigned) [Compound 20a]",1000 to 2000,1000 to 2000,1000 to 2000
C=CCn1c(=O)c2cnc(Nc3ccc(N4CC5CC(C4)N5CC)cc3)nc2n1-c1ccc2c(n1)[C@](C)(O)C1(CC2)CC1 [Compound 51b],100 to 1000,–,–
C=CCn1c(=O)c2cnc(Nc3ccc(N4CCC5(CCN(C)CC5)CC4)cc3)nc2n1-c1ccc2c(n1)[C@](C)(O)C1(CC2)CC1 [Compound 44b],100 to 1000,–,–
"C=CCn1c(=O)c2cnc(Nc3ccc(N4CC5CC(C4)N5C)cc3)nc2n1-c1ccc2c(n1)C(O)C1(CC2)CC1 (single isomer, unassigned) [Compound 34a]",–,100 to 1000,2000 to 5000
